Assay [1] addresses T1, Cholesteryl ester transfer protein (Homo sapiens, UniProt P11597).
T1 sequence (P11597 whole entry): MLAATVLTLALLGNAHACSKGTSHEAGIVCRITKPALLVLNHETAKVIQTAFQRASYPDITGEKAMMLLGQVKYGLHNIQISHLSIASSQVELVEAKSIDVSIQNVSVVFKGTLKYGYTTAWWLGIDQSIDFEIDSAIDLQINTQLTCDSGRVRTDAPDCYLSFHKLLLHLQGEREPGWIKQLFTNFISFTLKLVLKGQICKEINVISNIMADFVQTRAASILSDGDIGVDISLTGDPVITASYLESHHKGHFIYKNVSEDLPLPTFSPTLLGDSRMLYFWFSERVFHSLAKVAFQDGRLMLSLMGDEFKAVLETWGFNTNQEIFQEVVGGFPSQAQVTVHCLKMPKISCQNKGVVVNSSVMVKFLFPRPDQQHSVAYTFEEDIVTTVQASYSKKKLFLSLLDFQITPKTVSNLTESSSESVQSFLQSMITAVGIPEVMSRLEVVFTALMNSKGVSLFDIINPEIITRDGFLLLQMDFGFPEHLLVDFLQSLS
Description: Inhibition of CETP-mediated [3H]-CE from HDL to LDL in human plasma.

Another assay relates to Mus musculus. Kind of assay: Ex vivo inhibition of human CETP overexpressed in po dosed double transgenic mouse harboring human apoA1 assessed as elevation of HDL-cholesterol level measured at 8 hrs post dose. The format is functional.

What is called IC50 is the concentration needed to halve the response being measured. Low values mean higher potency, high ones lower potency. One may read the ED50 as the midpoint of the dose-response relation.

In turn, `NCC(O)C(F)(F)F` (configuration not stated) yielded an IC50 in assay [1] of 0.6 µM.
Turning to `Cc1cc(C)c2c(c1)[C@@H](N(Cc1cc(C(F)(F)F)cc(C(F)(F)F)c1)c1nnn(C)n1)CCCN2C[C@H]1CC[C@H](C(=O)O)CC1` [EVACETRAPIB], the ED50 in the assay with Mus musculus is under 5 mg/kg.

The values are drawn from ChEMBL document CHEMBL3351791, “Some molecular targets for antihyperlipidemic drug research” (Eur J Med Chem, 2014).
